Like-named read-outs stand apart in the source and are kept apart here.

Data set [1] deals with HBeAg. Kind of data set: PHH natural infection assay, HBeAg (alphalisa). The data set is classed as cell-based, HBV. Put shortly:
(§1)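 Cryopreserved PHH plated 24 h, infected with HBV at 200 GE/cell plus 4% PEG8000 for 24 h, then sandwich-cultured 72 h with 0.25 mg/mL matrix gel. Compounds at varied concentrations applied twice at 72-h intervals. Supernatant HBsAg and HBeAg measured by AlphaLISA with specific antibodies.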

Data set [2] in a line: Cytotoxicity in PHH natural infection assay (Cell Counting Kit-8). The format is cell-based. The following applies: HBV-infected primary human hepatocytes, CCK8. Put shortly:
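HBV-infected primary human hepatocytes (200 GE/cell, 4% PEG8000, 24 h), sandwich-cultured 72 h, then given compound-containing medium twice at 72 h intervals. Cytotoxicity read by CCK-8 at end of treatment.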

The subject of data set [3] is HBsAg. Description: PHH natural infection assay, HBsAg (alphalisa). The data set is classed as cell-based, HBV. Put shortly: as §1
On the technique in general: In Alpha technology, singlet oxygen from a donor bead excites a nearby acceptor bead.

[4] abbreviates: Hepatitis B virus, Hepatocyte, read-out: HBeAg IC50, HBV-infected primary human hepatocytes, supernatant, alphalisa.
Setting [5] is: Hepatitis B virus, Hepatocyte, read-out: HBsAg IC50, HBV-infected primary human hepatocytes, supernatant, alphalisa.

Take `CS(=O)(=O)N1CCC(CC(=O)NC2CC3(C2)CC(c2nc4cc(Cl)ccc4o2)C3)CC1` (stereo not drawn) [Example 79, N-[6-(5-chloro-1,3-benzoxazol-2-yl)spiro[3.3]heptan-2-yl]-2-(1-methylsulfonyl-4-piperidyl)acetamide]: the half-maximal inhibitory concentration (IC50) is 3.6 µM in data set [1] (setting [4]) and 6.72 µM in data set [3] (setting [5]). In addition, in data set [2], the CC50 at 144 h was over 10 µM.

Turning to `[H][C@]1(NC(=O)c2ccnc(S(=O)(=O)C3CC3)c2)C[C@]2(C1)C[C@]([H])(c1nc3cc(Cl)ccc3o1)C2` (single isomer, unassigned) [Example 84a, (Ra)—N-[6-(5-chloro-1,3-benzoxazol-2-yl)spiro[3.3]heptan-2-yl]-2-cyclopropylsulfonyl-pyridine-4-carboxamide], the IC50 in data set [1] (read-out: HBeAg IC50, HBV-infected primary human hepatocytes, supernatant, alphalisa) was 0.13 µM; in data set [3] (read-out: HBsAg IC50, HBV-infected primary human hepatocytes, supernatant, alphalisa) it was 0.07 µM. The compound also registered a cytotoxic concentration (CC50) at 144 h in data set [2] of 84.3 µM.

Consider `O=C(NC1CC2(C1)CC(c1nc3cc(C(F)(F)F)ccc3o1)C2)C1CCS(=O)(=O)CC1` (stereo not drawn) [Example 57, 1,1-dioxo-N-[6-[5-(trifluoromethyl)-1,3-benzoxazol-2-yl]spiro[3.3]heptan-2-yl]thiane-4-carboxamide], for which the 50% inhibitory concentration (IC50) in data set [1] (setting [4]) was 3.59 µM; in data set [3] (setting [5]), 4.47 µM. The same compound had a 50% cytotoxic concentration (CC50) at 144 h in data set [2] of over 100 µM.

On to `CCN(C)c1cc(C(=O)NC2CC3(C2)CC(c2nc4cc(Cl)ccc4o2)C3)ccn1` (stereo not drawn) [Example 7, N-[6-(5-chloro-1,3-benzoxazol-2-yl)spiro[3.3]heptan-2-yl]-2-[ethyl(methyl)amino]pyridine-4-carboxamide], for which the figures for the concentration for half-maximal inhibition (IC50) in data set [1] (setting [4]) and in data set [3] (setting [5]) were 4.34 µM and 4.19 µM, respectively. For the same compound, the CC50 at 144 h in data set [2] was over 10 µM.

Regarding `O=C(NC1CC2(C1)CC(c1nc3cc(Cl)ccc3o1)C2)C1CN(Cc2ccccc2)S(=O)(=O)C1` (stereo not drawn) [Example 44, 2-benzyl-N-[6-(5-chloro-1,3-benzoxazol-2-yl)spiro[3.3]heptan-2-yl]-1,1-dioxo-1,2-thiazolidine-4-carboxamide], the values for the IC50 in data set [1] (setting [4]) and in data set [3] (setting [5]) were 4.6 µM and 4.44 µM, respectively. Besides, the cytotoxic concentration (CC50) at 144 h in data set [2] was over 10 µM.

For the compound `CC(C)CC(=O)NC1CC2(C1)CC(c1nc3cc(Cl)ccc3o1)C2` (stereo not drawn) [Example 28, N-[6-(5-chloro-1,3-benzoxazol-2-yl)spiro[3.3]heptan-2-yl]-3-methyl-butanamide], the figures for the 50% inhibitory concentration (IC50) in data set [1] (setting [4]) and in data set [3] (setting [5]) were 2.28 µM and 2.54 µM, respectively. The compound also displayed a CC50 at 144 h in data set [2] of over 100 µM.

In the case of `CCS(=O)(=O)c1cc(C(=O)N(C)C2CC3(CC(c4nc5cc(Cl)ccc5o4)C3)C2)ccn1` (stereo not drawn) [Example 93, N-[6-(5-chloro-1,3-benzoxazol-2-yl)spiro[3.3]heptan-2-yl]-2-ethylsulfonyl-N-methyl-pyridine-4-carboxamide], the IC50 in data set [1] (setting [4]) is 2.21 µM; in data set [3] (setting [5]), 3.08 µM. Further, in data set [2], the CC50 at 144 h is over 10 µM.

As to `CNC(=O)c1cc(C(=O)NC2CC3(C2)CC(c2nc4cc(Cl)ccc4o2)C3)ccn1` (stereo not drawn) [Example 102, N4-[6-(5-chloro-1,3-benzoxazol-2-yl)spiro[3.3]heptan-2-yl]-N2-methyl-pyridine-2,4-dicarboxamide], the figures for the IC50 in data set [1] (setting [4]) and in data set [3] (setting [5]) were 2.28 µM and 2.69 µM, respectively. Also, the 50% cytotoxic concentration (CC50) at 144 h in data set [2] is over 10 µM.

Consider `O=C(NC1CC2(C1)CC(c1nc3cc(Cl)ccc3o1)C2)C1CNS(=O)(=O)C1` (stereo not drawn) [Example 43, N-[6-(5-chloro-1,3-benzoxazol-2-yl)spiro[3.3]heptan-2-yl]-1,1-dioxo-1,2-thiazolidine-4-carboxamide], for which the IC50 in data set [1] (setting [4]) turned out to be 3.81 µM; in data set [3] (setting [5]), 9.04 µM. This compound also displayed a CC50 at 144 h in data set [2] of over 10 µM.

As to `CN(C)c1cc(C(=O)NC2CC3(C2)CC(c2nc4cc(Cl)ccc4o2)C3)ccn1` (stereo not drawn) [Example 11, N-[6-(5-chloro-1,3-benzoxazol-2-yl)spiro[3.3]heptan-2-yl]-2-(dimethylamino)pyridine-4-carboxamide], the half-maximal inhibitory concentration (IC50) in data set [1] (setting [4]) was 2.67 µM; in data set [3] (setting [5]) it was 2.85 µM. The same compound showed a CC50 at 144 h in data set [2] of over 100 µM.

In the case of `O=C(NC1CC2(C1)CC(c1nc3cc(Cl)ccc3o1)C2)c1ccccn1` (stereo not drawn) [Example 1, N-[6-(5-chloro-1,3-benzoxazol-2-yl)spiro[3.3]heptan-2-yl]pyridine-2-carboxamide], the IC50 in data set [1] (setting [4]) worked out at 7.89 µM; in data set [3] (setting [5]), 9.75 µM. For the same compound, the CC50 at 144 h in data set [2] worked out at 74.8 µM.

With `CC(C)NC(=O)NC1CC2(C1)CC(c1nc3cc(Cl)ccc3o1)C2` (stereo not drawn) [Example 61, 1-[6-(5-chloro-1,3-benzoxazol-2-yl)spiro[3.3]heptan-2-yl]-3-isopropyl-urea], the results for the half-inhibitory concentration (IC50) in data set [1] (setting [4]) and in data set [3] (setting [5]) were 3.82 µM and 4.71 µM, respectively. The compound further displayed a half-maximal cytotoxic concentration (CC50) at 144 h in data set [2] of over 100 µM.

With `O=C(NC1CC2(C1)CC(c1nc3cc(Cl)ccc3o1)C2)N1CCC2(COC2)C1` (stereo not drawn) [Example 67, N-[6-(5-chloro-1,3-benzoxazol-2-yl)spiro[3.3]heptan-2-yl]-2-oxa-7-azaspiro[3.4]octane-7-carboxamide], the concentration for half-maximal inhibition (IC50) in data set [1] (setting [4]) stood at 3.76 µM; in data set [3] (setting [5]), 3.95 µM. For the same compound, the CC50 at 144 h in data set [2] was over 100 µM.

As for `O=C(NC1CC2(C1)CC(c1nc3cc(Cl)ccc3o1)C2)c1ccnc(C(F)(F)F)c1` (stereo not drawn) [Example 21, N-[6-(5-chloro-1,3-benzoxazol-2-yl)spiro[3.3]heptan-2-yl]-2-(trifluoromethyl)pyridine-4-carboxamide], the IC50 in data set [1] (setting [4]) came out at 1.98 µM; in data set [3] (setting [5]), 1.82 µM. For the same compound, the midpoint of cytotoxicity in data set [2], the CC50 at 144 h, lay at 82 µM.

As to `[H][C@]1(C(=O)N[C@]2([H])C[C@@]3(C2)C[C@@]([H])(c2nc4cc(Cl)ccc4o2)C3)CC(=O)N(C)C1` (single isomer, unassigned) [Example 94d], the IC50 in data set [1] (setting [4]) was determined as 1.46 µM; in data set [3] (setting [5]), 2.57 µM. The same compound registered a CC50 at 144 h in data set [2] of over 100 µM.

`CCCNC(=O)NC1CC2(C1)CC(c1nc3cc(Cl)ccc3o1)C2` (stereo not drawn) [Example 60, 1-[6-(5-chloro-1,3-benzoxazol-2-yl)spiro[3.3]heptan-2-yl]-3-propyl-urea]: the half-inhibitory concentration (IC50) in data set [1] (setting [4]) was 5.1 µM; in data set [3] (setting [5]), 7.19 µM. This compound also showed a cytotoxic concentration (CC50) at 144 h in data set [2] of over 100 µM.

`O=C(NC1CC2(C1)CC(c1nc3cc(Cl)ccc3o1)C2)c1ccnc(N2CCCC2=O)c1` (stereo not drawn) [Example 13, N-[6-(5-chloro-1,3-benzoxazol-2-yl)spiro[3.3]heptan-2-yl]-2-(2-oxopyrrolidin-1-yl)pyridine-4-carboxamide]: the concentration for half-maximal inhibition (IC50) came to 3.94 µM in data set [1] (setting [4]) and 3.75 µM in data set [3] (setting [5]). This compound had a CC50 at 144 h in data set [2] of over 10 µM.

Turning to `N#Cc1cc(C(=O)NC2CC3(C2)CC(c2nc4cc(Cl)ccc4o2)C3)ccn1` (stereo not drawn) [Example 18, N-[6-(5-chloro-1,3-benzoxazol-2-yl)spiro[3.3]heptan-2-yl]-2-cyano-pyridine-4-carboxamide], the half-inhibitory concentration (IC50) was 4.87 µM in data set [1] (setting [4]) and 4.86 µM in data set [3] (setting [5]). Also, in data set [2], the half-maximal cytotoxic concentration (CC50) at 144 h was over 10 µM.

Take `O=C(NC1CC2(C1)CC(c1nc3cc(Cl)ccc3o1)C2)c1ccncc1` (stereo not drawn) [Example 3, N-[6-(5-chloro-1,3-benzoxazol-2-yl)spiro[3.3]heptan-2-yl]pyridine-4-carboxamide]: the 50% inhibitory concentration (IC50) in data set [1] (setting [4]) is 4.39 µM; in data set [3] (setting [5]), 8.19 µM. For the same compound, the CC50 at 144 h in data set [2] is over 100 µM.

For `O=C(NC1CC2(C1)CC(c1nc3cc(Cl)ccc3o1)C2)c1ccnc(S(=O)(=O)C2CC2)c1` (stereo not drawn) [Example 83, N-[6-(5-chloro-1,3-benzoxazol-2-yl)spiro[3.3]heptan-2-yl]-2-cyclopropylsulfonyl-pyridine-4-carboxamide], the IC50 came to 0.05 µM in data set [1] (setting [4]) and 0.14 µM in data set [3] (setting [5]). The compound also yielded a 50% cytotoxic concentration (CC50) at 144 h in data set [2] of 90.5 µM.

The term IC50 denotes the midpoint of a concentration-inhibition curve. What is called CC50 is the concentration that lowers cell viability or growth by half.

The values above are taken from US20230286968A1, “ARYLOXAZOLO SPIRAL RING DERIVATIVES FOR THE TREATMENT AND PROPHYLAXIS OF HEPATITIS B VIRUS INFECTION” (Hoffmann-La Roche Inc., priority 2020, published 2023).
